Experimental data reported in patent US10204708B2, “System and method for deriving parameters for homeostatic feedback control of an individual” (Agency for Science, Technology and Research, priority 2012, dated 2019).

Tests used:
Assay type in all cases: in vivo, human
[1] = thyroid function test, thyroid-stimulating hormone [TSH] level of patient under treatment
Text: (§1) The method 10 is particularly suited to derive the hypothalamus pituitary (HP) characteristic of the individual. The HP characteristic of, the individual relates the level of thyroid-stimulating hormone [TSH] level in milliunits per liter (mU/L) and the corresponding free thyroxin [FT4] level in picomoles per liter (pmol/L) in the individual. In the following description, homeostatic measurements would be understood to refer to measurements of the level of [TSH] and corresponding [FT4] in an individual.
(§2) Each homeostatic measurement comprises a value of a [TSH] reading and a corresponding [FT4] reading. To determine the S and φ parameters for the individual, at least two well distinguishable homeostatic, measurements (i.e. ([FT4]1, [TSH]1) and ([FT4]2, [TSH]2)) from the individual are obtained with a predetermined time gap in between each measurement. The measurements are performed on samples taken near the same time of the day by the same analytical measurement method and ideally applied by one and the same person whenever feasible to minimise errors that can compromise the accuracy of the model estimates.
(§3) Preferably, the individual measurements are performed in a fasting condition and separated by 6 weeks while under medical treatment for a hypothyroidism or hyperthyroidism state with the replacement hormone for [T4] leading to a state of clinical euthyroidism.
(§4) Any method known for measuring homeostatic parameters would be suitable, for example, various types of chromatography, immunochemistry or other methods known to accurately measure the amount of a homeostatic expression product, as long as the same measurement method is applied by one and the same person.

[2] = thyroid function test, free thyroxin [FT4] level of patient under treatment
Text: as §1, §2, §3, §4

[3] = clinical course of hypothyroid Graves' disease patient on L-thyroxin; conditions: Example 3 patient, 75 mcg L-T4 daily
Text: They were thus started on L-thyroxin from day 456 at 25 mcg daily, and escalated to 50 mcg daily from day 715.

[4] = Example 1 patient, day 0, Rx CMZ 20
[5] = Example 1 patient, day 53, Rx CMZ 10
[6] = Example 1 patient, day 86, Rx CMZ 30
[7] = Example 1 patient, day 125, Rx CMZ 10
[8] = Example 1 patient, day 210, Rx LT4 50 (mcg daily), after radioiodine-131 ablation
[9] = Example 1 patient, day 269, Rx LT4 50 (mcg daily)
[10] = Example 6 patient, 1 Oct. 2007, LT4 100
[11] = Example 6 patient, 2 May 1997, LT4 25
[12] = Example 6 patient, 3 May 2005, LT4 75
[13] = Example 6 patient, 5 Oct. 2005, LT4 100
[14] = Example 6 patient, 6 May 2011, LT4 100
[15] = Example 6 patient, 10 Dec. 2010, LT4 100
[16] = Example 6 patient, 12 Feb. 2007, LT4 100
[17] = Example 6 patient, 14 May 2007, LT4 100
[18] = Example 6 patient, 16 Aug. 1999, LT4 50
[19] = Example 6 patient, 16 Mar. 2012, LT4 100
[20] = Example 6 patient, 17 Aug. 1998, LT4 50
[21] = Example 6 patient, 19 Oct. 2006, LT4 100
[22] = Example 6 patient, 21 Jun. 2006, LT4 100
[23] = Example 6 patient, 23 Jan. 2006, LT4 100
[24] = Example 6 patient, 24 Apr. 2002, LT4 50
[25] = Example 6 patient, 26 Oct. 1999, LT4 50
[26] = Example 6 patient, 28 Jul. 2008, LT4 100

Compound: CCOC(=O)n1ccn(C)c1=S [CMZ, carbimazole]
- TSH [1, 4]: <0.01 mU/L
- TSH [1, 5]: <0.01 mU/L
- TSH [1, 6]: 0.005 mU/L
- TSH [1, 7]: 0.02 mU/L
- FT4 [2, 4]: 53.3 pmol/L
- FT4 [2, 5]: 12.5 pmol/L
- FT4 [2, 6]: 31.3 pmol/L
- FT4 [2, 7]: 11 pmol/L

Compound: N[C@@H](Cc1cc(I)c(Oc2cc(I)c(O)c(I)c2)c(I)c1)C(=O)O [LT4, levothyroxin]
- clinical outcome [3]: euthyroidism and resolution of all their hypothyroid symptoms
- TSH [1, 8]: 9.05 mU/L
- TSH [1, 9]: 0.12 mU/L
- TSH [1, 10]: 4.34 mU/L
- TSH [1, 11]: 8.64 mU/L
- TSH [1, 12]: 6.67 mU/L
- TSH [1, 13]: 1.10 mU/L
- TSH [1, 14]: 0.99 mU/L
- TSH [1, 15]: 0.41 mU/L
- TSH [1, 16]: 2.65 mU/L
- TSH [1, 17]: 1.72 mU/L
- TSH [1, 18]: 4.96 mU/L
- TSH [1, 19]: 2.20 mU/L
- TSH [1, 20]: 8.71 mU/L
- TSH [1, 21]: 2.43 mU/L
- TSH [1, 22]: 1.48 mU/L
- TSH [1, 23]: 2.18 mU/L
- TSH [1, 24]: 2.32 mU/L
- TSH [1, 25]: 3.03 mU/L
- TSH [1, 26]: 3.12 mU/L
- FT4 [2, 8]: 5 pmol/L
- FT4 [2, 9]: 10 pmol/L
- FT4 ([2]; Example 4 patient, radiation-induced thyroid failure, LT4 25 mcg once daily): about 10 pmol/L
- FT4 [2, 10]: 11 pmol/L
- FT4 [2, 11]: 11.5 pmol/L
- FT4 [2, 12]: 13 pmol/L
- FT4 [2, 13]: 16 pmol/L
- FT4 [2, 14]: 17 pmol/L
- FT4 [2, 15]: 18 pmol/L
- FT4 [2, 16]: 15 pmol/L
- FT4 [2, 17]: 14 pmol/L
- FT4 [2, 18]: 12 pmol/L
- FT4 [2, 19]: 15 pmol/L
- FT4 [2, 20]: 10.6 pmol/L
- FT4 [2, 21]: 12 pmol/L
- FT4 [2, 22]: 13 pmol/L
- FT4 [2, 23]: 14 pmol/L
- FT4 [2, 24]: 13 pmol/L
- FT4 [2, 25]: 14 pmol/L
- FT4 [2, 26]: 13 pmol/L
